The values that follow come from BindingDB's records for doi:10.1016/j.ejmech.2008.03.019 (Institute of Pharmacology of The Polish Academy of Sciences, 2008).

The target in the assay is T1, 5-hydroxytryptamine receptor 1A (Rattus norvegicus, UniProt P19327).
T1 sequence (P19327 whole entry): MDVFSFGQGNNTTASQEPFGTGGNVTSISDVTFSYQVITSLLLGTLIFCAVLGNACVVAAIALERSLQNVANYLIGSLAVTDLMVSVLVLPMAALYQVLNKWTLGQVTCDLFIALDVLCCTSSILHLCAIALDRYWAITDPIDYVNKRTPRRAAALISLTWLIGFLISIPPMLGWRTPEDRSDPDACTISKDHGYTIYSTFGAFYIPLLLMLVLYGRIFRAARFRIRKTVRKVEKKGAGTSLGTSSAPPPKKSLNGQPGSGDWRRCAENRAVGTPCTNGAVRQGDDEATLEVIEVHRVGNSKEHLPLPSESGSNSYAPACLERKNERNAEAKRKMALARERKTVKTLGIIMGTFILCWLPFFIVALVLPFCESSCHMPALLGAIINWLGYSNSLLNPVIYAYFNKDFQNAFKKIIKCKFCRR
The experiment in a line: Displacement of [3H]8-OH-DPAT from 5HT1A receptor in rat hippocampal membranes.

For `CC1CC2(C)CC(=O)C1C1C(=O)N(OCCCN3CCN(c4ccccc4F)CC3)C(=O)C12` (stereo unspecified) [4-{3-[4-(2-Fluorophenyl)piperazin-1-yl]propoxy}-1,11-dimethyl-4-azatricyclo[5.2.2.0(2,6)]undecane-3,5,8-trione], the affinity corresponds to a Ki of 331 nM.

For orientation: Ki means a measure of affinity in units of concentration, obtained from inhibition or displacement. A low value points to higher affinity.
